Results reported in ChEMBL document CHEMBL1201862, “PubChem BioAssay data set” (2004).
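All cell lines were grown in 96-well plates and treated with compound for 48 hours. GI50 marks 50% less growth.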 Activity calls are given as the source filed them. No stated cut-off is given here; in the data, active = GI50 up to about 1.1 µM and inactive = higher.

Legend:
Assay in all cases: inhibition of tumour cell growth, NCI panel, 48 h
U-251 = tested on: U-251
LOX IMVI = tested on: LOX IMVI
UACC-257 = tested on: UACC-257
UO-31 = tested on: UO-31
HCT-15 = tested on: HCT-15
SK-MEL-28 = tested on: SK-MEL-28
HOP-62 = tested on: HOP-62
MDA-N = tested on: MDA-N
HL-60 = tested on: HL-60
PC-3 = tested on: PC-3
NCI/ADR-RES = tested on: NCI/ADR-RES
MDA-MB-435 = tested on: MDA-MB-435
BT-549 = tested on: BT-549
M14 = tested on: M14
IGROV-1 = tested on: IGROV-1
RPMI-8226 = tested on: RPMI-8226
OVCAR-5 = tested on: OVCAR-5
CCRF-CEM = tested on: CCRF-CEM
CAKI-1 = tested on: CAKI-1
EKVX = tested on: EKVX

Row | Compound | GI50 (U-251) | GI50 (LOX IMVI) | GI50 (UACC-257) | GI50 (UO-31) | GI50 (HCT-15) [µM] | GI50 (SK-MEL-28) | GI50 (HOP-62) | GI50 (MDA-N) | GI50 (HL-60) | GI50 (PC-3) | GI50 (NCI/ADR-RES) | GI50 (MDA-MB-435) | GI50 (BT-549) | GI50 (M14) | GI50 (IGROV-1) | GI50 (RPMI-8226) | GI50 (OVCAR-5) | GI50 (CCRF-CEM) | GI50 (CAKI-1) | GI50 (EKVX)
1 | O=C1CCCC1CN1CCCC1 (stereo not given) | 23 µM (inactive) | 8.75 µM (inactive) | 15.2 µM (inactive) | 7.31 µM (inactive) | 2 | 13.6 µM (inactive) | > 67 µM (inactive) | 13.5 µM (inactive) | 0.367 µM (active) | 18.9 µM (inactive) | 15.7 µM (inactive) | 13.1 µM (inactive) | 1.56 µM (inactive) | 1.67 µM (inactive) | 10.6 µM (inactive) | 0.431 µM (active) | 18.3 µM (inactive) | 0.207 µM (active) | 0.348 µM (active) | 18.1 µM (inactive)
2 | COc1nc2c(c(=O)n1C)N[C@H]1[C@H](OC(C)=O)[C@@H](OC(C)=O)CO[C@H]1N2 | > 100 µM (inactive) | > 100 µM (inactive) | > 100 µM (inactive) | > 100 µM (inactive) | > 100 | > 100 µM (inactive) | > 100 µM (inactive) | > 100 µM (inactive) | > 100 µM (inactive) | > 100 µM (inactive) | > 100 µM (inactive) | > 100 µM (inactive) | > 100 µM (inactive) | > 100 µM (inactive) | > 100 µM (inactive) | > 100 µM (inactive) | > 100 µM (inactive) | > 10 µM (inactive) | > 100 µM (inactive) | > 100 µM (inactive)
3 | CN(c1ccccc1Cl)S(=O)(=O)c1ccc([N+](=O)[O-])cc1 | > 100 µM (inactive) | > 100 µM (inactive) | > 100 µM (inactive) | > 100 µM (inactive) | > 100 | > 100 µM (inactive) | > 100 µM (inactive) | > 100 µM (inactive) | > 100 µM (inactive) | > 100 µM (inactive) | > 100 µM (inactive) | > 100 µM (inactive) | > 100 µM (inactive) | > 100 µM (inactive) | > 100 µM (inactive) | > 100 µM (inactive) | > 100 µM (inactive) | > 100 µM (inactive) | > 100 µM (inactive) | > 100 µM (inactive)
4 | CC(C)(CN1CCCCC1)C(=O)/C=C/c1ccc(/C=C/C(=O)C(C)(C)CN2CCCCC2)cc1 | 0.273 µM (active) | 0.268 µM (active) | 1.05 µM (active) | 1.14 µM (inactive) | 0.204 | 1.17 µM (inactive) | 0.946 µM (active) | 0.177 µM (active) | 0.116 µM (active) | 0.273 µM (active) | 0.393 µM (active) | 0.421 µM (active) | 1.7 µM (inactive) | 0.908 µM (active) | 0.505 µM (active) | 0.193 µM (active) | 0.726 µM (active) | 0.0466 µM (active) | 0.303 µM (active) | 1.71 µM (inactive)
5 | [N-]=[N+]=CC(=O)C1CCN(c2ccccc2)C1=O (stereo not given) | > 10 µM (inactive) | > 10 µM (inactive) | > 10 µM (inactive) | > 10 µM (inactive) | > 10 | > 10 µM (inactive) | > 10 µM (inactive) | > 10 µM (inactive) | > 10 µM (inactive) | > 10 µM (inactive) | > 10 µM (inactive) | > 10 µM (inactive) | > 10 µM (inactive) | > 10 µM (inactive) | > 10 µM (inactive) | > 10 µM (inactive) | > 10 µM (inactive) | > 10 µM (inactive) | > 10 µM (inactive) | > 10 µM (inactive)
6 | CC(OCc1ccccc1)C(NC(=O)C1CSSCC(NC(=O)C(Cc2ccccc2)NC(=O)OCc2ccccc2)C(=O)NC(Cc2ccccc2)C(=O)NC(Cc2cn(C=O)c3ccccc23)C(=O)NC(CCCCNC(=O)OCc2ccccc2)C(=O)NC(C(C)OCc2ccccc2)C(=O)N1)C(N)=O (stereo not given) | 25.1 µM (inactive) | 20 µM (inactive) | 44 µM (inactive) | 78.3 µM (inactive) | 32 | 27.9 µM (inactive) | 55.1 µM (inactive) | 24.2 µM (inactive) | 0.977 µM (active) | 19.1 µM (inactive) | > 100 µM (inactive) | 37.9 µM (inactive) | 21.2 µM (inactive) | 21.1 µM (inactive) | 22.6 µM (inactive) | 5.04 µM (inactive) | 45 µM (inactive) | 36.6 µM (inactive) | 46 µM (inactive) | > 83.2 µM (inactive)
7 | COc1cc(/C=C/C(=O)O)ccc1OS(=O)(=O)O | > 100 µM (inactive) | > 100 µM (inactive) | > 100 µM (inactive) | > 100 µM (inactive) | > 100 | > 100 µM (inactive) | > 100 µM (inactive) | > 100 µM (inactive) | > 100 µM (inactive) | > 100 µM (inactive) | > 100 µM (inactive) | > 100 µM (inactive) | > 100 µM (inactive) | > 100 µM (inactive) | > 100 µM (inactive) | > 100 µM (inactive) | > 100 µM (inactive) | > 100 µM (inactive) | > 100 µM (inactive) | > 100 µM (inactive)
